Reference: paper PMC10808981, “Synthesis and structure–activity relationships of aryl fluorosulfate-based inhibitors as novel antitubercular agents” (Bioorganic & Medicinal Chemistry Letters, 2024)
Like-named read-outs stand apart in the source and are kept apart here.

Columns and labels:
[1] = test system: Mtb H37Rv; assay: MIC determination in Mtb H37Rv, Microdilution Alamar Blue Assay (MABA); format: cell-based, Mycobacterium tuberculosis
[2] = test system: HEK293T cells; assay: HEK293T cytotoxicity assay (Cell Titer-Glo); format: cell-based; conditions: for CC50: HEK293T, 3 days
Description: (§1) HEK293T (ATCC) were grown in DMEM (Gibco Cat # 11965-092) supplemented with 10% heat-inactivated FBS, Pen Strep (Gibco) 1X in a 5% CO2 humidified atmosphere at 37◦C. Cells were washed once with DPBS 1X (Gibco), incubated for less than 5 minutes at room temperature in TrypLE solution (Gibco), washed once in propagation medium to remove trypsin, and counted with Trypan Blue. 5 µL of cell suspension ([…]) was dispensed into 1536-well plates containing serial 3-fold drug dilution ranging from 40 µM to 2 nM and incubated for 3 days in a 5% CO2 humidified atmosphere at 37 ◦C. Cell Titer-Glo® Luminescent Cell Viability Assay (Promega) reagent was diluted 1:1 with water and then 2 µL were added to plates. Luminescence was measured in a PHERAStar plate reader (BMG Labtech) and data normalized to negative control (DMSO) minus inhibitor (Puromycin 10 µM). Dose-response curves were fit using the Smart Fit function in Genedata Screener Analyzer (v16.0.8).

[3] = test system: HepG2 cells; conditions: for CC50: read-out: HepG2 CC50, HepG2, 3 days
[4] = test system: Mtb H37Ra; assay: microbe, parasite or virus in culture; format: cell-based; conditions: Mycobacterium tuberculosis, 168 h, read-out: H37Ra IC50
[5] = test system: Mtb CDC1551; assay: Anti-TB activity against Mtb CDC1551 (IC90), Alamar Blue; format: cell-based; conditions: Mycobacterium tuberculosis
[6] = HEK293T cytotoxicity assay (Cell Titer-Glo); format: cell-based; conditions: human, HEK293T cells; HEK293T, 3 days
Description: as §1

[7] = in vitro; conditions: human
[8] = in vitro; conditions: mouse, plasma
[9] = in vitro; conditions: mouse, po, 20 mg/kg
[10] = mouse
[11] = in vivo; conditions: mouse
[12] = Mycobacterium tuberculosis, H37RV, 168 h, Mtb H37Rv, MABA, 7 days

4-((2,6-difluoro-4-(1H-1,2,3-triazol-1-yl)benzyl)oxy)phenyl sulfurofluoridate [Compound 3 m]
MIC ([1]; Mtb H37Rv, MABA, 7 days): 0.22 µM
CC50 [2]: > 40 µM
CC50 [3]: > 40 µM

4-((2,6-difluoro-4-(3-isopropyl-1H-1,2,4-triazol-1-yl)benzyl)oxy)phenyl sulfurofluoridate [Compound 20 h]
MIC ([1]; Mtb H37Rv, MABA, 7 days): 0.31 µM
CC50 [2]: > 40 µM
CC50 [3]: > 40 µM

CC(=O)Nc1ccc(COc2ccc(OS(=O)(=O)F)cc2)cc1 [Compound 2]
IC50 [4]: 1.3 µM

O=S(=O)(F)Oc1ccc(OCc2ccc(-n3cncn3)cc2)cc1 [Compound 3a, 4-((4-(1H-1,2,4-triazol-1-yl)benzyl)oxy)phenyl sulfurofluoridate]
IC90 [5]: 4.71 µM
IC50 [4]: 1.5 µM
MIC [1, 12]: 2.84 µM
CC50 at 72 h [6]: 11.6 µM
CC50 at 72 h [7]: 19.3 µM

COc1cc(OCc2ccc(-n3cncn3)cc2)ccc1OS(=O)(=O)F [Compound 3b, 4-((4-(1H-1,2,4-triazol-1-yl)benzyl)oxy)-2-methoxyphenyl sulfurofluoridate]
IC90 [5]: > 30 µM
anti-TB activity against Mtb (in words) [1]: not active
MIC [1, 12]: 25 µM
CC50 at 3 days [6]: > 40 µM
CC50 at 72 h [7]: 13.3 µM

O=S(=O)(F)Oc1ccc(OCc2ccc(-n3cncn3)cc2)cc1Cl [Compound 3c, 4-((4-(1H-1,2,4-triazol-1-yl)benzyl)oxy)-2-chlorophenyl sulfurofluoridate]
IC90 [5]: 4.64 µM
CC50 at 72 h [6]: 3.7 µM
cytotoxicity against HEK293T (in words) [2]: exhibited cytotoxicity
CC50 at 72 h [7]: 5.8 µM
cytotoxicity against HepG2 (in words) [3]: exhibited cytotoxicity

O=S(=O)(F)Oc1ccc(OCc2ccc(-n3cncn3)cc2F)cc1 [Compound 3d, 4-((2-fluoro-4-(1H-1,2,4-triazol-1-yl)benzyl)oxy)phenyl sulfurofluoridate]
IC90 [5]: 1.3 µM
MIC [1, 12]: 0.6 µM
CC50 at 72 h [6]: 22.7 µM
CC50 at 72 h [7]: 12.5 µM

O=S(=O)(F)Oc1ccc(OCc2c(F)cc(-n3cncn3)cc2F)cc1 [Compound 3i, 4-((2,6-difluoro-4-(1H-1,2,4-triazol-1-yl)benzyl)oxy)phenyl sulfurofluoridate]
MIC [1, 12]: 0.6 µM
CC50 at 3 days [6]: > 40 µM
CC50 at 72 h [7]: 5.8 µM
selectivity index (SI) ([3]; HepG2 cytotoxicity vs H37Rv MIC): 9.6

CC(=O)Nc1ncn(-c2cc(F)c(COc3ccc(OS(=O)(=O)F)cc3)c(F)c2)n1 [Compound 21a, 4-((4-(3-acetamido-1H-1,2,4-triazol-1-yl)-2,6-difluorobenzyl)oxy)phenyl sulfurofluoridate]
MIC [1, 12]: 0.15 µM
CC50 at 3 days [6]: > 40 µM
CC50 [7]: > 40 µM

CS(=O)(=O)Nc1ncn(-c2cc(F)c(COc3ccc(OS(=O)(=O)F)cc3)c(F)c2)n1 [Compound 21b, 4-((2,6-difluoro-4-(3-(methylsulfonamido)-1H-1,2,4-triazol-1-yl)benzyl)oxy)phenyl sulfurofluoridate]
fraction unbound [8]: 0.008
fraction unbound [9]: 0.016
H37Rv MIC ([1]; Mtb H37Rv, MABA, 7 days): 0.06 ± 0.019 µM
MIC ([1]; Mycobacterium tuberculosis, H37RV): 0.028 µg/mL
MIC [1, 12]: 0.06 µM
coverage of plasma and lung levels above the H37Rv MIC ([10]; 20 mg/kg PO, total levels): ~24 h
unbound levels of plasma and lung coverage over MIC ([10]; 20 mg/kg PO, unbound levels): ~8 h
AUC0-24 ([10]; IV 3 mg/kg): 7,085 hr*ng/mL
Cl ([10]; IV 3 mg/kg): 7.05 mL/min/kg
T1/2 ([10]; IV 3 mg/kg): 3.93 h
Vd ([10]; IV 3 mg/kg): 2.38 L/kg
AUC0-24 ([10]; PO 20 mg/kg): 47,615 hr*ng/mL
T1/2 ([10]; PO 20 mg/kg): 2.57 h
Tmax ([10]; PO 20 mg/kg): 1.00 h
Clung at 8 h ([10]; PO 20 mg/kg, lung, 8 h): 1,596 ng/mL
Clung at 24 h ([10]; PO 20 mg/kg, lung, 24 h): 14.1 ng/mL
Cplasma at 8 h ([10]; PO 20 mg/kg, plasma, 8 h): 2,120 ng/mL
Cplasma at 24 h ([10]; PO 20 mg/kg, plasma, 24 h): 22.6 ng/mL
Cmax ([10]; in vivo, po, 20 mg/kg): 9,290 ng/mL
CC50 at 3 days [6]: > 40 µM
cytotoxicity against HEK293T (in words) [2]: no cytotoxicity
CC50 [7]: > 40 µM
cytotoxicity against HepG2 (in words) [3]: no cytotoxicity
Cmax ([11]; iv, 3 mg/kg): 3310 ng/mL
bioavailability ([11]; po, 20 mg/kg): 99.4%

CC(C)S(=O)(=O)Nc1ncn(-c2cc(F)c(COc3ccc(OS(=O)(=O)F)cc3)c(F)c2)n1 [Compound 21e, 4-((2,6-difluoro-4-(3-((1-methylethyl)sulfonamido)-1H-1,2,4-triazol-1-yl)benzyl)oxy)phenyl sulfurofluoridate]
MIC [1, 12]: 0.31 µM
CC50 at 3 days [6]: > 40 µM
CC50 [7]: > 40 µM

CC(C)(C)S(=O)(=O)Nc1ncn(-c2cc(F)c(COc3ccc(OS(=O)(=O)F)cc3)c(F)c2)n1 [Compound 21f, 4-((4-(3-((1,1-dimethylethyl)sulfonamido)-1H-1,2,4-triazol-1-yl)-2,6-difluorobenzyl)oxy)phenyl sulfurofluoridate]
MIC [1, 12]: 2.5 µM
CC50 at 3 days [6]: > 40 µM
CC50 [7]: > 40 µM
